Values joined by “and” are separate entries in the source; they are usually repeats but may differ in a detail not shown here. Equal entries are not always repeated. Inconclusive results are not listed.
System: BDF1 mice, colon carcinoma 38 sc, T/C %
Experiment: NCI In Vivo Anticancer Drug Screen. Data for tumor model Colon Carcinoma 38 (subcutaneous) in B6D2F1 (BDF1) mice
Summary of the method: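 Mice with transplanted tumors are treated with compound or vehicle. Survival or tumor size is then measured in both groups. The ratio of treated to control gives the reported figure.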

[1] = endpoint: median tumor weight (est.), dose: 50.0 mg/kg/injection, schedule: Q07DX002 (ip), vehicle: Klucel (hydroxypropylcellulose) (HPC), higher = larger tumour

## CCN(CC)CCOC(=O)Cc1cccc2c(=O)cc(-c3ccccc3)oc12
endpoint: median survival time, dose: 133.0 mg/kg/injection, schedule: Q07DX002 (ip), vehicle: saline, higher = longer survival
  T/C: 110 % of control
endpoint: median survival time, dose: 200.0 mg/kg/injection, schedule: Q07DX002 (ip), vehicle: saline, higher = longer survival
  T/C: 313 % of control
endpoint: median tumor weight (est.), dose: 3.12 mg/kg/injection, schedule: Q07DX002 (iv), vehicle: saline, higher = larger tumour
  T/C: 92 % of control
endpoint: median tumor weight (est.), dose: 6.25 mg/kg/injection, schedule: Q07DX002 (ip), vehicle: saline, higher = larger tumour
  T/C: 74 % of control
endpoint: median tumor weight (est.), dose: 6.25 mg/kg/injection, schedule: Q07DX002 (iv), vehicle: saline, higher = larger tumour
  T/C: 88 % of control
endpoint: median tumor weight (est.), dose: 12.5 mg/kg/injection, schedule: Q07DX002 (iv), vehicle: saline, higher = larger tumour
  T/C: 109 % of control
endpoint: median tumor weight (est.), dose: 25.0 mg/kg/injection, schedule: Q07DX002 (iv), vehicle: saline, higher = larger tumour
  T/C: 46 % of control
endpoint: median tumor weight (est.), dose: 28.0 mg/kg/injection, schedule: Q07DX002 (iv), vehicle: saline, higher = larger tumour
  T/C: 122 % of control
endpoint: median tumor weight (est.), dose: 37.5 mg/kg/injection, schedule: Q07DX002 (iv), vehicle: saline, higher = larger tumour
  T/C: 110 % of control
[1]
  T/C: 61 % of control
endpoint: median tumor weight (est.), dose: 50.0 mg/kg/injection, schedule: Q07DX002 (ip), vehicle: saline with Tween-80, higher = larger tumour
  T/C: 45 % of control
endpoint: median tumor weight (est.), dose: 50.0 mg/kg/injection, schedule: Q07DX009 (ip), vehicle: saline, higher = larger tumour
  T/C: 84 % of control
endpoint: median tumor weight (est.), dose: 100.0 mg/kg/injection, schedule: Q07DX002 (ip), vehicle: saline with Tween-80, higher = larger tumour
  T/C: 61 % of control
endpoint: median tumor weight (est.), dose: 100.0 mg/kg/injection, schedule: Q07DX009 (ip), vehicle: saline, higher = larger tumour
  T/C: 40 % of control
endpoint: median tumor weight (est.), dose: 112.0 mg/kg/injection, schedule: Q07DX002 (ip), vehicle: saline, higher = larger tumour
  T/C: 105 % of control
endpoint: median tumor weight (est.), dose: 150.0 mg/kg/injection, schedule: Q07DX002 (ip), vehicle: saline, higher = larger tumour
  T/C: 89 % of control

## NC(=O)c1ncn(C2OC(CO)C(O)C2O)c1O (stereo not given)
endpoint: median tumor weight (est.), dose: 25.0 mg/kg/injection, schedule: Q07DX002 (ip), vehicle: Klucel (hydroxypropylcellulose) (HPC), higher = larger tumour
  T/C: 118 % of control
endpoint: median tumor weight (est.), dose: 28.0 mg/kg/injection, schedule: Q07DX002 (ip), vehicle: Klucel (hydroxypropylcellulose) (HPC), higher = larger tumour
  T/C: 51 % of control
[1]
  T/C: 90 % of control
endpoint: median tumor weight (est.), dose: 56.0 mg/kg/injection, schedule: Q07DX002 (ip), vehicle: Klucel (hydroxypropylcellulose) (HPC), higher = larger tumour
  T/C: 48 % of control
endpoint: median tumor weight (est.), dose: 112.0 mg/kg/injection, schedule: Q07DX002 (ip), vehicle: Klucel (hydroxypropylcellulose) (HPC), higher = larger tumour
  T/C: 79 % of control
endpoint: median tumor weight (est.), dose: 200.0 mg/kg/injection, schedule: Q07DX002 (ip), vehicle: Klucel (hydroxypropylcellulose) (HPC), higher = larger tumour
  T/C: 114 % of control and 98 % of control
endpoint: median tumor weight (est.), dose: 225.0 mg/kg/injection, schedule: Q07DX002 (ip), vehicle: Klucel (hydroxypropylcellulose) (HPC), higher = larger tumour
  T/C: 68 % of control
endpoint: median tumor weight (est.), dose: 400.0 mg/kg/injection, schedule: Q07DX002 (ip), vehicle: Klucel (hydroxypropylcellulose) (HPC), higher = larger tumour
  T/C: 105 % of control and 107 % of control
endpoint: median tumor weight (est.), dose: 450.0 mg/kg/injection, schedule: Q07DX002 (ip), vehicle: Klucel (hydroxypropylcellulose) (HPC), higher = larger tumour
  T/C: 61 % of control
endpoint: median tumor weight (est.), dose: 800.0 mg/kg/injection, schedule: Q07DX002 (ip), vehicle: Klucel (hydroxypropylcellulose) (HPC), higher = larger tumour
  T/C: 75 % of control
endpoint: median tumor weight (est.), dose: 900.0 mg/kg/injection, schedule: Q07DX002 (ip), vehicle: Klucel (hydroxypropylcellulose) (HPC), higher = larger tumour
  T/C: 61 % of control

## CCOC(=O)C1C2OC(=O)C(C(=O)C2CN(CCCl)CCCl)C1C1CC=C(CC2=CCC(C3C4C(=O)OC(C(CN(CCCl)CCCl)C4=O)C3C(=O)OCC)CC2)CC1 (stereo not given)
endpoint: median tumor weight (est.), dose: 12.5 mg/kg/injection, schedule: Q07DX003 (ip), vehicle: Klucel (hydroxypropylcellulose) (HPC), higher = larger tumour
  T/C: 95 % of control
endpoint: median tumor weight (est.), dose: 25.0 mg/kg/injection, schedule: Q07DX003 (ip), vehicle: Klucel (hydroxypropylcellulose) (HPC), higher = larger tumour
  T/C: 117 % of control
endpoint: median tumor weight (est.), dose: 50.0 mg/kg/injection, schedule: Q07DX003 (ip), vehicle: Klucel (hydroxypropylcellulose) (HPC), higher = larger tumour
  T/C: 116 % of control
endpoint: median tumor weight (est.), dose: 100.0 mg/kg/injection, schedule: Q07DX003 (ip), vehicle: Klucel (hydroxypropylcellulose) (HPC), higher = larger tumour
  T/C: 110 % of control
endpoint: median tumor weight (est.), dose: 200.0 mg/kg/injection, schedule: Q07DX003 (ip), vehicle: Klucel (hydroxypropylcellulose) (HPC), higher = larger tumour
  T/C: 67 % of control

## O=NN(CCCl)C(=O)NCCO
endpoint: median tumor weight (est.), dose: 3.12 mg/kg/injection, schedule: Q07DX002 (ip), vehicle: water, higher = larger tumour
  T/C: 75 % of control
endpoint: median tumor weight (est.), dose: 12.5 mg/kg/injection, schedule: Q07DX002 (ip), vehicle: water, higher = larger tumour
  T/C: 18 % of control and 34 % of control
endpoint: median tumor weight (est.), dose: 25.0 mg/kg/injection, schedule: Q07DX002 (ip), vehicle: water, higher = larger tumour
  T/C: 14 % of control

— PubChem BioAssay AID212 (DTP/NCI, 2004)
